Read-outs that look alike come from different tables or passages of the source.
How the values were obtained:
DLD-1 BRCA2−/− cells = test: Homologous recombination synthetic lethal inhibition of proliferation, DLD-1 BRCA2-/- (Cell Titre Glo 3D); type: cell-based; details: Homo sapiens, read-out: POLQ PD Prolif Lumin (converted)
In short: (§1)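 Proliferation of HR-deficient DLD-1 BRCA2−/− versus isogenic wild-type DLD-1 was measured by ATP luminescence (CellTiter-Glo 3D). Compound exposure lasted 12 or 7 days, respectively, with a fresh dose on day 6. IC50 was the concentration halving maximal signal.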

DLD-1 cells = test: Inhibition of proliferation, DLD-1 BRCA2 wt control (Cell Titre Glo 3D); type: cell-based; details: Homo sapiens, read-out: POLQ PD Prolif Lumin (converted)
In short: as §1

[1] = DLD-1, first proliferation column (c5), DLD-1 BRCA2-/-
[2] = DLD-1, second proliferation column (c6), DLD-1 BRCA2 wt control
[3] = DLD-1, DLD-1 BRCA2-/- proliferation, column head only partly shown
[4] = DLD-1, DLD-1 BRCA2 wt control proliferation, column head only partly shown

Cc1cnc(Cn2c(-c3cccc(OCCN4CC(O)C4)c3Cl)nc3c(OC4(C)CC4)ncnc32)s1 [Example T142, 1-(2-(2-chloro-3-(6-(1-methylcyclopropoxy)-9-((5-methylthiazol-2-yl)methyl)-9H-purin-8-yl)phenoxy)ethyl)azetidin-3-ol]
IC50 (DLD-1 BRCA2−/− cells; [1]): 1000 nM
IC50 (DLD-1 cells; [2]): > 10000 nM

CC1(Oc2ncnc3c2nc(-c2ccc(OCCN4CCNCC4)cc2Cl)n3Cc2ncsc2Cl)CC1 [Example T145, 5-chloro-4-((8-(2-chloro-4-(2-(piperazin-1-yl)ethoxy)phenyl)-6-(1-methylcyclopropoxy)-9H-purin-9-yl)methyl)thiazole]
IC50 (DLD-1 BRCA2−/− cells; [1]): 2000 nM
IC50 (DLD-1 cells; [2]): > 10000 nM

CC1(Oc2ncnc3c2nc(-c2ccc(OCCN4CCNCC4)cc2Cl)n3Cc2cnc(Cl)s2)CC1 [Example T146, 2-chloro-5-((8-(2-chloro-4-(2-(piperazin-1-yl)ethoxy)phenyl)-6-(1-methylcyclopropoxy)-9H-purin-9-yl)methyl)thiazole]
IC50 (DLD-1 BRCA2−/− cells; [1]): 1260 nM
IC50 (DLD-1 cells; [2]): > 10000 nM

Cc1cnc(Cn2c(-c3ccc(OCCCN(C)C)cc3Cl)nc3c(OC4(C)CC4)ncnc32)s1 [Example T148, 3-(3-chloro-4-(6-(1-methylcyclopropoxy)-9-((5-methylthiazol-2-yl)methyl)-9H-purin-8-yl)phenoxy)-N,N-dimethylpropan-1-amine]
IC50 (DLD-1 BRCA2−/− cells; [1]): 316 nM
IC50 (DLD-1 cells; [2]): > 7940 nM

Cc1cnc(Cn2c(-c3cccc(OCCCN(C)C)c3Cl)nc3c(OC4(C)CC4)ncnc32)s1 [Example T149, 3-(2-chloro-3-(6-(1-methylcyclopropoxy)-9-((5-methylthiazol-2-yl)methyl)-9H-purin-8-yl)phenoxy)-N,N-dimethylpropan-1-amine]
IC50 (DLD-1 BRCA2−/− cells; [1]): 316 nM
IC50 (DLD-1 cells; [2]): > 10000 nM

CC1(Oc2ncnc3c2nc(-c2ccc(OCCC(=O)O)cc2Cl)n3Cc2cccc(C(F)(F)F)c2)CC1 [Example T151, 3-(3-chloro-4-(6-(1-methylcyclopropoxy)-9-(3-(trifluoromethyl)benzyl)-9H-purin-8-yl)phenoxy)propanoic acid]
IC50 (DLD-1 BRCA2−/− cells; [1]): 398 nM
IC50 (DLD-1 cells; [2]): > 10000 nM

CC1(Oc2ncnc3c2nc(-c2cccc(OCCCC(=O)O)c2Cl)n3Cc2cccc(Cl)c2)CC1 [Example T157, 4-(2-chloro-3-(9-(3-chlorobenzyl)-6-(1-methylcyclopropoxy)-9H-purin-8-yl)phenoxy)butanoic acid]
IC50 (DLD-1 BRCA2−/− cells; [1]): 31.6 nM
IC50 (DLD-1 cells; [2]): > 10000 nM

CC1(Oc2ncnc3c2nc(-c2cccc(OC(C)(C)C(=O)O)c2Cl)n3Cc2cccc(Cl)c2)CC1 [Example T158, 2-(2-chloro-3-(9-(3-chlorobenzyl)-6-(1-methylcyclopropoxy)-9H-purin-8-yl)phenoxy)-2-methylpropanoic acid]
IC50 (DLD-1 BRCA2−/− cells; [1]): > 10000 nM
IC50 (DLD-1 cells; [2]): > 10000 nM

Cc1ccnc(Cn2c(-c3ccc(C(=O)N4CCC4)cc3Cl)nc3c(OC4(C)CC4)ncnc32)c1 [Example T169, azetidin-1-yl(3-chloro-4-(6-(1-methylcyclopropoxy)-9-((4-methylpyridin-2-yl)methyl)-9H-purin-8-yl)phenyl)methanone]
IC50 (DLD-1 BRCA2−/− cells; [1]): 631 nM
IC50 (DLD-1 cells; [2]): 10000 nM

Cc1ccnc(Cn2c(-c3ccc(N4CCCC4=O)cc3Cl)nc3c(OC4(C)CC4)ncnc32)c1 [Example T171, 1-(3-chloro-4-(6-(1-methylcyclopropoxy)-9-((4-methylpyridin-2-yl)methyl)-9H-purin-8-yl)phenyl)pyrrolidin-2-one]
IC50 (DLD-1 BRCA2−/− cells; [1]): 158 nM
IC50 (DLD-1 cells; [2]): > 10000 nM

Cc1ccnc(Cn2c(-c3ccc(N4CC[C@@H](O)C4=O)cc3Cl)nc3c(OC4(C)CC4)ncnc32)c1 [Example T181, (R)-1-(3-chloro-4-(6-(1-methylcyclopropoxy)-9-((4-methylpyridin-2-yl)methyl)-9H-purin-8-yl)phenyl)-3-hydroxypyrrolidin-2-one]
IC50 (DLD-1 BRCA2−/− cells; [1]): 316 nM
IC50 (DLD-1 cells; [2]): > 10000 nM

Cc1ccnc(Cn2c(-c3ccc(O[C@H]4CCNC4=O)cc3Cl)nc3c(OC4(C)CC4)ncnc32)c1 [Example T185, (S)-3-(3-chloro-4-(6-(1-methylcyclopropoxy)-9-((4-methylpyridin-2-yl)methyl)-9H-purin-8-yl)phenoxy)pyrrolidin-2-one]
IC50 (DLD-1 BRCA2−/− cells; [1]): 501 nM
IC50 (DLD-1 cells; [2]): > 10000 nM

Cc1ccnc(Cn2c(-c3ccc(O[C@@H]4CCNC4=O)cc3Cl)nc3c(OC4(C)CC4)ncnc32)c1 [Example T186, (R)-3-(3-chloro-4-(6-(1-methylcyclopropoxy)-9-((4-methylpyridin-2-yl)methyl)-9H-purin-8-yl)phenoxy)pyrrolidin-2-one]
IC50 (DLD-1 BRCA2−/− cells; [1]): 251 nM
IC50 (DLD-1 cells; [2]): > 10000 nM

Cc1ccnc(Cn2c(-c3ccc(OCC4(O)CC4)cc3Cl)nc3c(OC4(C)CC4)ncnc32)c1 [Example T197, 1-((3-chloro-4-(6-(1-methylcyclopropoxy)-9-((4-methylpyridin-2-yl)methyl)-9H-purin-8-yl)phenoxy)methyl)cyclopropan-1-ol]
IC50 (DLD-1 BRCA2−/− cells; [1]): 251 nM
IC50 (DLD-1 cells; [2]): > 10000 nM

Cc1ccnc(Cn2c(-c3ccc(OCCN(C)C)cc3Cl)nc3c(OC4(C#N)CC4)ncnc32)c1 [Example T203, 1-((8-(2-chloro-4-(2-(dimethylamino)ethoxy)phenyl)-9-((4-methylpyridin-2-yl)methyl)-9H-purin-6-yl)oxy)cyclopropane-1-carbonitrile]
IC50 (DLD-1 BRCA2−/− cells; [3]): 398 nM
IC50 (DLD-1 cells; [4]): > 10000 nM

Cc1ccnc(Cn2c(-c3ccc(N4CC(C(N)=O)C4)cc3Cl)nc3c(OC4(C)CC4)ncnc32)c1 [Example T204, 1-(3-chloro-4-(6-(1-methylcyclopropoxy)-9-((4-methylpyridin-2-yl)methyl)-9H-purin-8-yl)phenyl)azetidine-3-carboxamide]
IC50 (DLD-1 BRCA2−/− cells; [3]): 631 nM
IC50 (DLD-1 cells; [4]): > 10000 nM

Cc1ccnc(Cn2c(-c3ccc(OC4CN(C(N)=O)C4)cc3Cl)nc3c(OC4(C)CC4)ncnc32)c1 [Example T205, 3-(3-chloro-4-(6-(1-methylcyclopropoxy)-9-((4-methylpyridin-2-yl)methyl)-9H-purin-8-yl)phenoxy)azetidine-1-carboxamide]
IC50 (DLD-1 BRCA2−/− cells; [3]): 398 nM
IC50 (DLD-1 cells; [4]): > 10000 nM

CC1(Oc2ncnc3c2nc(-c2ccc(OCCN4CC(O)C4)cc2Cl)n3Cc2cc(Cl)ccn2)CC1 [Example T206, 1-(2-(3-chloro-4-(9-((4-chloropyridin-2-yl)methyl)-6-(1-methylcyclopropoxy)-9H-purin-8-yl)phenoxy)ethyl)azetidin-3-ol]
IC50 (DLD-1 BRCA2−/− cells; [3]): 126 nM
IC50 (DLD-1 cells; [4]): > 10000 nM

CC1(Oc2ncnc3c2nc(-c2ccc(OCCN4CCNCC4)cc2Cl)n3Cc2ncc(C(F)(F)F)s2)CC1 [Example T207, 2-((8-(2-chloro-4-(2-(piperazin-1-yl)ethoxy)phenyl)-6-(1-methylcyclopropoxy)-9H-purin-9-yl)methyl)-5-(trifluoromethyl)thiazole]
IC50 (DLD-1 BRCA2−/− cells; [3]): 794 nM
IC50 (DLD-1 cells; [4]): 10000 nM

Cc1ccnc(Cn2c(-c3ccc(O[C@H]4CCNC4)cc3Cl)nc3c(OC4(C)CC4)ncnc32)c1 [Example T208, (S)-8-(2-chloro-4-(pyrrolidin-3-yloxy)phenyl)-6-(1-methylcyclopropoxy)-9-((4-methylpyridin-2-yl)methyl)-9H-purine]
IC50 (DLD-1 BRCA2−/− cells; [3]): 501 nM
IC50 (DLD-1 cells; [4]): > 10000 nM

Cc1ccnc(Cn2c(-c3ccc(CN4CC(O)C4)cc3Cl)nc3c(OC4(C)CC4)ncnc32)c1 [Example T209, 1-(3-chloro-4-(6-(1-methylcyclopropoxy)-9-((4-methylpyridin-2-yl)methyl)-9H-purin-8-yl)benzyl)azetidin-3-ol]
IC50 (DLD-1 BRCA2−/− cells; [3]): 631 nM
IC50 (DLD-1 cells; [4]): > 10000 nM

Cc1ccnc(Cn2c(-c3ccc(CC(=O)N(C)C)cc3Cl)nc3c(OC4(C)CC4)ncnc32)c1 [Example T210, 2-(3-chloro-4-(6-(1-methylcyclopropoxy)-9-((4-methylpyridin-2-yl)methyl)-9H-purin-8-yl)phenyl)-N,N-dimethylacetamide]
IC50 (DLD-1 BRCA2−/− cells; [3]): 316 nM
IC50 (DLD-1 cells; [4]): > 10000 nM

Cc1cnc(Cn2c(-c3ccc(OC4CC5(CNC5)C4)cc3Cl)nc3c(OC4(C)CC4)ncnc32)s1 [Example T215, 2-((8-(4-((2-azaspiro[3.3]heptan-6-yl)oxy)-2-chlorophenyl)-6-(1-methylcyclopropoxy)-9H-purin-9-yl)methyl)-5-methylthiazole]
IC50 (DLD-1 BRCA2−/− cells; [3]): 1000 nM
IC50 (DLD-1 cells; [4]): > 10000 nM

Cc1ccnc(Cn2c(-c3ccc(N4CCS(=O)(=O)CC4)cc3Cl)nc3c(OC4(C)CC4)ncnc32)c1 [Example T225, 4-(3-chloro-4-(6-(1-methylcyclopropoxy)-9-((4-methylpyridin-2-yl)methyl)-9H-purin-8-yl)phenyl)thiomorpholine 1,1-dioxide]
IC50 (DLD-1 BRCA2−/− cells; [3]): 631 nM
IC50 (DLD-1 cells; [4]): > 10000 nM

CC1(Oc2ncnc3c2nc(-c2ccc(N4CCC(N)CC4)cc2Cl)n3Cc2cc(Cl)ccn2)CC1 [Example T230, 1-(3-chloro-4-(9-((4-chloropyridin-2-yl)methyl)-6-(1-methylcyclopropoxy)-9H-purin-8-yl)phenyl)piperidin-4-amine]
IC50 (DLD-1 BRCA2−/− cells; [3]): 398 nM
IC50 (DLD-1 cells; [4]): > 10000 nM

CN(C)CCCOc1ccc(-c2nc3c(OC4(C)CC4)ncnc3n2Cc2cc(Cl)ccn2)c(F)c1 [Example T231, 3-(4-(9-((4-chloropyridin-2-yl)methyl)-6-(1-methylcyclopropoxy)-9H-purin-8-yl)-3-fluorophenoxy)-N,N-dimethylpropan-1-amine]
IC50 (DLD-1 BRCA2−/− cells; [3]): 251 nM
IC50 (DLD-1 cells; [4]): > 10000 nM

Cc1ccnc(Cn2c(-c3ccc(OCCCS(C)(=O)=O)cc3Cl)nc3c(OC4(C)CC4)ncnc32)c1 [Example T234, 8-(2-chloro-4-(3-(methylsulfonyl)propoxy)phenyl)-6-(1-methylcyclopropoxy)-9-((4-methylpyridin-2-yl)methyl)-9H-purine]
IC50 (DLD-1 BRCA2−/− cells; [3]): 200 nM
IC50 (DLD-1 cells; [4]): > 10000 nM

Cc1ccnc(Cn2c(-c3ccc(CCN(C)C)cc3Cl)nc3c(OC4(C)CC4)ncnc32)c1 [Example T236, 2-(3-chloro-4-(6-(1-methylcyclopropoxy)-9-((4-methylpyridin-2-yl)methyl)-9H-purin-8-yl)phenyl)-N,N-dimethylethan-1-amine]
IC50 (DLD-1 BRCA2−/− cells; [3]): 251 nM
IC50 (DLD-1 cells; [4]): > 10000 nM

— patent publication US20250195530A1, “POLQ INHIBITORS” (ASTRAZENECA AB, priority 2022, published 2025)
